# Columns and labels:
# New Zealand-rabbits = assay: Pre-ovulatory repeated oral levonorgestrel, rate of fertilized eggs in rabbits (ovulation induced by PMSG/hCG); type: in vivo, rabbit; conditions: for % fertilized (cleaved) eggs: control 90.6
# Description: On the last day of LNG-administration, the ovulation was “forced” by intravenous (i.v.) injection of human chorionic gonadotropin (hCG). […] [table]
# [1] = tested on: female paired Wistar-rats; assay: Post-ovulatory subcutaneous levonorgestrel, fertility of female paired rats; type: in vivo, rat
# Method: Whereas 20 mg/kg bodyweight (b.w.). […] [table]
# [2] = tested on: immature male Wistar-rats; assay: Weight of gonads in immature male rats (antigonadotrophic effect); type: in vivo, rat; conditions: final control 873.5 ± 62.5, p < 0.05
# Description: The influence of levonorgestrel on the secretion of gonadotrophins from the pituitary can be estimated by recording the dose-effect relationships in reducing the weight of the gonads of immature male rats. [table]
# Luteinizing Hormone (LH) = assay: Serum levels of Luteinizing Hormone in male castrated rats (radioimmunoassay); type: in vivo, rat; conditions: gonadectomized control 127.0 ± 11.0, p < 0.05
# women = conditions: without estrogen; cited from earlier work
# [3] = Martinez F et al. 2012; cited from earlier work
# [4] = total dosage 0.35 mg/animal p.o. over 3 days
# [5] = total dosage 1.75 mg/animal p.o. over 3 days
# [6] = s.c. days 1-4 p.i., total dose 0.2 mg/animal/4 days
# [7] = s.c. days 1-4 p.i., total dose 2.0 mg/animal/4 days
# [8] = s.c. once Day 1 p.i., total dose 4.0 mg/animal
smiles,measurement,setting,value
C#C[C@]1(O)CC[C@H]2[C@@H]3CCC4=CC(=O)CC[C@@H]4[C@H]3CC[C@@]21CC [levonorgestrel],Total no. of eggs vs. total no. of fertilized (cleaved) eggs,New Zealand-rabbits; [4],92/78
same,% fertilized (cleaved) eggs,New Zealand-rabbits; [4],84.8%
same,Total no. of eggs vs. total no. of fertilized (cleaved) eggs,New Zealand-rabbits; [5],81/49
same,% fertilized (cleaved) eggs,New Zealand-rabbits; [5],60.5%
same,% fertilized (cleaved) eggs,New Zealand-rabbits; total dosage 5.25 mg/animal p.o. over 3 days,54.5%
same,No. of treated animals vs. no. of intact pregnancies,[1]; [6],10/9
same,Pregnancy inhibition (%),[1]; [6],10%
same,No. of treated animals vs. no. of intact pregnancies,[1]; [7],10/0
same,Pregnancy inhibition (%),[1]; [7],100%
same,No. of treated animals vs. no. of intact pregnancies,[1]; [8],12/12
same,Pregnancy inhibition (%),[1]; [8],0%
same,Gonadal weight/mg Mean ± (S.E.M.),[2]; total dose 0.14 mg/animal over 14 d s.c.,579.7 ± 44.7 mg
same,Gonadal weight/mg Mean ± (S.E.M.),[2]; total dose 0.42 mg/animal over 14 d s.c.,385.7 ± 74.3 mg
same,Gonadal weight/mg Mean ± (S.E.M.),[2]; total dose 1.40 mg/animal over 14 d s.c.,180.8 ± 105.5 mg
same,Luteinizing Hormone ng/mL serum,Luteinizing Hormone (LH); total dose 0.14 mg/animal/14 d s.c.,68.4 ± 15.4 ng/mL serum
same,Luteinizing Hormone ng/mL serum,Luteinizing Hormone (LH); total dose 1.40 mg/animal/14 d s.c.,2.2 ± 0.3 ng/mL serum
same,daily dosage leading to non-acceptable bleeding irregularities,women,over 0.125 mg
same,risk of venous thromboembolism (VTE),[3],currently the safest progestin

# — patent US20150283152A1, “Levonorgestrel-Only-Composition For Optimized Oral Contraception With Defined Levonorgestrel Content, Dosage Regimen And Pharmaceutical Preparation” (NAARI AG, priority 2012, published 2015)
